Laboratory results taken from ChEMBL document CHEMBL1201862, “PubChem BioAssay data set” (2004).
The source made the active and inactive calls.

Key:
[1] = target: T1, Fructose-bisphosphate aldolase (Mycobacterium tuberculosis, UniProt P9WQA3); test: Fluorescence-based biochemical high throughput dose response assay for inhibitors of the fructose-bisphosphate aldolase (FBA) of M. tuberculosis.; format: functional
T1 sequence (P9WQA3 whole entry): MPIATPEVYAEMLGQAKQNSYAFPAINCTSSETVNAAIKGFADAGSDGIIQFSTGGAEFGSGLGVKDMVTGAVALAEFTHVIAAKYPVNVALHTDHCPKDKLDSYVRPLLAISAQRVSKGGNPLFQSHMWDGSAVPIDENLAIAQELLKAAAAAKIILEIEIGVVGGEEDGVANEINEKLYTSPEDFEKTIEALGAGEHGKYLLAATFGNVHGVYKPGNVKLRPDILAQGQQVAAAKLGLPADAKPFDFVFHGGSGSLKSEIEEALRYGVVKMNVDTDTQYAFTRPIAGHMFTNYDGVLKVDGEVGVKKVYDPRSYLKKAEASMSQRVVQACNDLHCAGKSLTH

Albumin = Albumin (Bos taurus, UniProt P02769); test: Counterscreen for inhibitors of T-cell receptor (TCR)-CD3 interaction: Fluorescence-based biochemical high throughput dose response assay to identify inhibitors of T-cell receptor (TCR)-CD3 interaction using a TAMRA-labeled BSA probe.; format: functional
[2] = target: T2, Long-chain-fatty-acid--AMP ligase FadD28 (Mycobacterium tuberculosis, UniProt P9WQ59); test: Fluorescence polarization aasay to screen for inhibitors that compete for the binding of FadD28 to a bisubstrate Measured in Biochemical System Using Plate Reader - 2147-01_Inhibitor_Dose_CherryPick_Activity.; format: functional, Mycobacterium tuberculosis H37Rv
T2 sequence (P9WQ59 whole entry): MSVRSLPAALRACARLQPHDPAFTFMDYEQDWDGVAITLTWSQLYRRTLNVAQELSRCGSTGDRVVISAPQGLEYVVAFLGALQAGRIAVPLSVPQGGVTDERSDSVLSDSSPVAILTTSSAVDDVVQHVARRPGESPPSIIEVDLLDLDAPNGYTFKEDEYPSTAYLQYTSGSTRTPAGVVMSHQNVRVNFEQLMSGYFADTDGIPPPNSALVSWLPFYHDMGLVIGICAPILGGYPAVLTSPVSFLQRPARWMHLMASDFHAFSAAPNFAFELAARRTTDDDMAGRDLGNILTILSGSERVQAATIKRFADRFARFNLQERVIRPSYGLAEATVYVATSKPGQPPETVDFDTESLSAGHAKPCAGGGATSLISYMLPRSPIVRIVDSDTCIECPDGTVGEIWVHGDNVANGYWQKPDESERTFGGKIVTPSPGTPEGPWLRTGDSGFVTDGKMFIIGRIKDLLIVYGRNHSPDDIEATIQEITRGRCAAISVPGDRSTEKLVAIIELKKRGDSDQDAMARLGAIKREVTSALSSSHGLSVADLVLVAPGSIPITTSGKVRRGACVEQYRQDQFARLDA

[3] = NIH-3T3 fibroblast cytotoxicity, dose response, cytotoxicity control, cell-based, fluorescence, Alamar Blue, secondary assay (AID 2327); format: functional;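 note: NIH-3T3 mouse fibroblasts cultured with fluconazole at 8 µg/mL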
Streptococcus = test: GAS UMAA2166 growth inhibition – luminescence, BacTiterGlo, counter-screen for streptokinase expression inhibitor project, dose response (AID 1915); format: functional, organism-based;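 note: potency for reduction of bacterial viability or growth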
Streptokinase A = target: T3, Streptokinase A (Streptococcus pyogenes serotype M1, UniProt P10520); test: viability-normalized secreted streptokinase activity reduction – plasminogen activation absorbance, OD405, dose response (AID 1914); format: functional, Streptococcus pyogenes M1 GAS;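 note: secreted streptokinase activity via plasminogen activation per viability signal from cell pellet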
T3 sequence (P10520 whole entry): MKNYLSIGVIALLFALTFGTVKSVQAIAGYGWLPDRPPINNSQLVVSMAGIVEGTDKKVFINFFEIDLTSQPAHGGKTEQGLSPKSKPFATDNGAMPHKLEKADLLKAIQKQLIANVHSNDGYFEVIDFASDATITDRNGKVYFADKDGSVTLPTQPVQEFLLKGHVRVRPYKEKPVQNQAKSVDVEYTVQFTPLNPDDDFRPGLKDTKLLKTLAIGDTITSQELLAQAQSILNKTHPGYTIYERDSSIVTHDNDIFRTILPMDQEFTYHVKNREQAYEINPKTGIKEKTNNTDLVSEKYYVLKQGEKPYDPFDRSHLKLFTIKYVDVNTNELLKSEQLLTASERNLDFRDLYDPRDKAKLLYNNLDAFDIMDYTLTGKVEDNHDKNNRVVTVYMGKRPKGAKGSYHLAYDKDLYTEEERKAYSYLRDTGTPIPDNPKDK

[4] = test system: Streptococcus sp. 'group A'; test: Streptococcus pyogenes SK(-)GAS viability under kanamycin – luminescence, BacTiterGlo, confirmation, counter-screen for streptokinase expression inhibitor project, dose response (AID 1900); format: functional, organism-based
[5] = target: Eukaryotic translation initiation factor 4E (Mus musculus, UniProt P63073); test: blockers of eIF4G binding by eIF4E – biochemical, TR-FRET, dose response (AID 855); format: functional;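 note: potency for disrupting eIF4E binding to eIF4GI seen as loss of FRET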
[6] = target: T4, High affinity choline transporter 1 (Homo sapiens, UniProt Q9GZV3); test: human choline transporter blockers, potency – cell-based, 5-point CRC, membrane potential dye, dose response (AID 504840); format: functional
T4 sequence (Q9GZV3 whole entry): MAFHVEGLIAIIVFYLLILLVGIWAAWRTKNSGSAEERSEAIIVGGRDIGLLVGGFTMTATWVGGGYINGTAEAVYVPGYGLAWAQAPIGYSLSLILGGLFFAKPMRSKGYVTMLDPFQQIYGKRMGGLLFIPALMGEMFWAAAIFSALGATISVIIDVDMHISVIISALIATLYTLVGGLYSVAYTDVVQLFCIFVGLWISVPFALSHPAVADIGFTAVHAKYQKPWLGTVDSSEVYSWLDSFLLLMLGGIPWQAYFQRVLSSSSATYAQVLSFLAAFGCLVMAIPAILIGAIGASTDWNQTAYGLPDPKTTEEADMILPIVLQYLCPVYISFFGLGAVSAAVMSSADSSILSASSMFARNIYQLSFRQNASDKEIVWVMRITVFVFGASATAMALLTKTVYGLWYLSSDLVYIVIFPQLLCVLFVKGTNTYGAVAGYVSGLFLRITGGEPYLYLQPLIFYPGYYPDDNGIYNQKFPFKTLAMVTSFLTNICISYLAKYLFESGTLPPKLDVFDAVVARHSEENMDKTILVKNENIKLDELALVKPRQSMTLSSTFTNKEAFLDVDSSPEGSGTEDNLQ

Aminopeptidase N = target: T5, Aminopeptidase N (Plasmodium falciparum FcB1/Columbia, UniProt O96935); test: malaria alanyl aminopeptidase activity blockers – biochemical, fluorogenic H-Leu-NHMec substrate, 1536-well (AID 1445); parameters: species or system Plasmodium falciparum 3D7, 3D7
T5 sequence (O96935 whole entry): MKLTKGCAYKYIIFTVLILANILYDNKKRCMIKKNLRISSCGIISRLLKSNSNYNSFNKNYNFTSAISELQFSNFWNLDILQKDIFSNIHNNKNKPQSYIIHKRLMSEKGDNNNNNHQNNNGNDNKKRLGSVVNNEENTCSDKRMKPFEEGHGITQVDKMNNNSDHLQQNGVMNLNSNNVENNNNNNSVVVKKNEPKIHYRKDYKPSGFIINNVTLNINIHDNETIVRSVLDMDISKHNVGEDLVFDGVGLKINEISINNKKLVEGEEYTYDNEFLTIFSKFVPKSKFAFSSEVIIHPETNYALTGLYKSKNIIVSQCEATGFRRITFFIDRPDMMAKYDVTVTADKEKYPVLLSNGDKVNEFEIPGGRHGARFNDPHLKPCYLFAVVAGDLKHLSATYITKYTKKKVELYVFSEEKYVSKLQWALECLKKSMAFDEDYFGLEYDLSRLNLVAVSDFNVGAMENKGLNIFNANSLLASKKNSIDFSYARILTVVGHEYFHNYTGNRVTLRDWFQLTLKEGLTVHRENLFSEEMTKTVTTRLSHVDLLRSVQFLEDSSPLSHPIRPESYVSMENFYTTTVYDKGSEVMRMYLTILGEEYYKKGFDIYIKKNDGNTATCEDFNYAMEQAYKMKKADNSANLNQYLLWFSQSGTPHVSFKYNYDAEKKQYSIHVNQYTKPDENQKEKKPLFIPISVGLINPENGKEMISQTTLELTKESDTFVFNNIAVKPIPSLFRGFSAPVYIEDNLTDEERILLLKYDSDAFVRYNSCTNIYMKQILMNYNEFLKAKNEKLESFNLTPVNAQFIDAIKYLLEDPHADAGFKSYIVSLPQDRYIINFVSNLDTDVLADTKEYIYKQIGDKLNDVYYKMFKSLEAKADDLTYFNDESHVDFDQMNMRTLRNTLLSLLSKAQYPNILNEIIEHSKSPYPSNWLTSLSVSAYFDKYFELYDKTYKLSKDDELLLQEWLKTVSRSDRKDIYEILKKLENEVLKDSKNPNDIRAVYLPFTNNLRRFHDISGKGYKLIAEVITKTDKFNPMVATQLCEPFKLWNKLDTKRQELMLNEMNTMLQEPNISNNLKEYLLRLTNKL

[7] = fluconazole-exposed Candida albicans growth modulators – fluorescence, retest, confirmation (AID 2467); format: functional, cell-based
Caspase-6 = target: T6, Caspase-6 (Homo sapiens, UniProt P55212); test: inhibition of CASP6 peptide cleavage – biochemical, VEID-R110 fluorescence, cherry-pick, dose response (AID 720632)
T6 sequence (P55212 whole entry): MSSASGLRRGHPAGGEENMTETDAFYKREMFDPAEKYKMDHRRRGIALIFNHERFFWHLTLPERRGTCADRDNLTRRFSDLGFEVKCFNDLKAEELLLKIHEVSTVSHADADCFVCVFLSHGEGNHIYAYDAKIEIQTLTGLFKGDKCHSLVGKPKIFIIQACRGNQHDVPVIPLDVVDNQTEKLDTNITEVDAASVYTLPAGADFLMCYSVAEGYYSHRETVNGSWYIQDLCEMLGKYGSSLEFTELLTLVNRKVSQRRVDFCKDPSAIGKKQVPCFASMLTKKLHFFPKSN

[8] = target: T7, Mannose-6-phosphate isomerase (Homo sapiens, UniProt P34949); test: MPI inhibition at elevated mannose 6-phosphate – biochemical, fluorescence intensity, high mannose 6-phosphate, primary screen (AID 1220)
T7 sequence (P34949 whole entry): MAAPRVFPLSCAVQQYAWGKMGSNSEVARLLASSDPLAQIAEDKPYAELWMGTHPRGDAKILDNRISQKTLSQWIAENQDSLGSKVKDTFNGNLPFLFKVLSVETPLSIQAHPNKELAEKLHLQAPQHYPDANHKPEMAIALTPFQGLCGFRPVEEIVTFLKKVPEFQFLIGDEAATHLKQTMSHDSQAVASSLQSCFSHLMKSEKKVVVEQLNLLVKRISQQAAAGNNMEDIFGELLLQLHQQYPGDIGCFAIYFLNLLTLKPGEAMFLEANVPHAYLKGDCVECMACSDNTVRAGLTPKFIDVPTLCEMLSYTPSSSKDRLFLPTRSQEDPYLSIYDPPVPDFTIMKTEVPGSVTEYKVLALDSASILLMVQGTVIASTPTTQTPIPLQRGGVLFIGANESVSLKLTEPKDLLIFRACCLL

Genome polyprotein = Genome polyprotein (dengue virus type 2, UniProt P29990); test: flavivirus cap methylation enzyme inhibition – biochemical, confirmation dose response, primary screen (AID 588689); format: functional
[9] = target: Induced myeloid leukemia cell differentiation protein Mcl-1 (Homo sapiens, UniProt Q07820); format: functional
cells = format: functional, cell-based; settings: HEK-CNG
Galanin receptor type 3 = target: T8, Galanin receptor type 3 (Homo sapiens, UniProt O60755); test: Fluorescence-based cell-based primary high throughput dose response assay to identify antagonists of the Galanin Receptor 3 (GalR3).; format: functional
T8 sequence (O60755 whole entry): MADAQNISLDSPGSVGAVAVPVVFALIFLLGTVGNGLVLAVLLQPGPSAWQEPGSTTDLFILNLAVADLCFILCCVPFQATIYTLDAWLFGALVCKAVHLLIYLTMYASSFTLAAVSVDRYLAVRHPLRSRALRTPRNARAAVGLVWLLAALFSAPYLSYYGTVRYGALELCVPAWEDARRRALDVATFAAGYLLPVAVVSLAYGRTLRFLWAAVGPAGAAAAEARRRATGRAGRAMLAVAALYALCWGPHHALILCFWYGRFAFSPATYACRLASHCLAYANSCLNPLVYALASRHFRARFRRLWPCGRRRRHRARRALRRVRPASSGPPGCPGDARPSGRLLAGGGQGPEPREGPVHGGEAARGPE

[10] = A cytotoxicity screen of small molecule inhibitors of the PhoP region in Salmonella typhi identified in the primary screen. [Related pubchem assays: 1850, 1864, 1985 ]; format: functional

Chain of Albumin (P02769 whole entry): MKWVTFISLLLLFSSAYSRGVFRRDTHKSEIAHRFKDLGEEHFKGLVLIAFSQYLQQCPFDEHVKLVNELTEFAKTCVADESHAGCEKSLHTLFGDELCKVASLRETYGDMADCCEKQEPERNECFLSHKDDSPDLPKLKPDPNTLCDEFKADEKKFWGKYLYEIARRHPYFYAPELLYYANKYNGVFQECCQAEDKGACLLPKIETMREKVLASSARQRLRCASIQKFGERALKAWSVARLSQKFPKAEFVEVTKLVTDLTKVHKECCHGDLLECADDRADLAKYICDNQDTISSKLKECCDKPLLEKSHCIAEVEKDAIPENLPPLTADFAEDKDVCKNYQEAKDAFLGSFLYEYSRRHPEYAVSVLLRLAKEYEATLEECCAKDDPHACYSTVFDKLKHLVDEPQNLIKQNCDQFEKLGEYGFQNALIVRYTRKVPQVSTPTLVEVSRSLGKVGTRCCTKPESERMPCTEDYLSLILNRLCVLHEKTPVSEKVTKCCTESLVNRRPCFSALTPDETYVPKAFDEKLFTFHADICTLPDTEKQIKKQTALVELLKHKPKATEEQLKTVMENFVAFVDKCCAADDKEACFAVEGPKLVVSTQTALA
Chain of Eukaryotic translation initiation factor 4E (P63073 whole entry): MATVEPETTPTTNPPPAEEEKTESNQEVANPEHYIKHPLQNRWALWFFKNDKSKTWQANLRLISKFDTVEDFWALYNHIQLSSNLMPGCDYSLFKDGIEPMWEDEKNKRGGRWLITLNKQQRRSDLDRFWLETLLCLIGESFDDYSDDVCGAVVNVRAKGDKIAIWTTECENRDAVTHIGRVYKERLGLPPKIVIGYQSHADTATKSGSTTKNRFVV
Chain of Genome polyprotein (P29990 2492-3391 limits assumed): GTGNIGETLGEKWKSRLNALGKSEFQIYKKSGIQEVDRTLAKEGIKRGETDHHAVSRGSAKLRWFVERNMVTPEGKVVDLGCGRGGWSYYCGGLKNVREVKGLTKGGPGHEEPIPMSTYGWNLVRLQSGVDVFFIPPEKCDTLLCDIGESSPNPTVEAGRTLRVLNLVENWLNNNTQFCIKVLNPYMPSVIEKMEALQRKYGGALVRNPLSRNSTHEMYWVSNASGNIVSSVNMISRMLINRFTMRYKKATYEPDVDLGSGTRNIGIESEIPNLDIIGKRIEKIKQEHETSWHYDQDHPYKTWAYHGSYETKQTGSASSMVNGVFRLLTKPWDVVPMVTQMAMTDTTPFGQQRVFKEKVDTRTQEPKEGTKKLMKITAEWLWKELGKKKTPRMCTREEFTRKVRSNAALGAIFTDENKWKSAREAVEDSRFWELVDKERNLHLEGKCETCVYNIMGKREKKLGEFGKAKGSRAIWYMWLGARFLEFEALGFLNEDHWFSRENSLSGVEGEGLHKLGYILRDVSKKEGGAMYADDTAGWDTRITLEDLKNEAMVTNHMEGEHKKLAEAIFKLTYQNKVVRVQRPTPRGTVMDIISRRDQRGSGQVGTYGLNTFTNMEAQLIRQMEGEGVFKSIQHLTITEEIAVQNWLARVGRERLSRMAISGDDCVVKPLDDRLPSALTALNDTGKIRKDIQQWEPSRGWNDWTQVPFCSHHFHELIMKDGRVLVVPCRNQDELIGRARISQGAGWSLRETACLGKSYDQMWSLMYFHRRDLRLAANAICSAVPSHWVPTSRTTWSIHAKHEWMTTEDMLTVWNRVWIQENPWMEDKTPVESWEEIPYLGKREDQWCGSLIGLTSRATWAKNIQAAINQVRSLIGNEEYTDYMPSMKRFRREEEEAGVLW
Chain of Induced myeloid leukemia cell differentiation protein Mcl-1 (Q07820 whole entry): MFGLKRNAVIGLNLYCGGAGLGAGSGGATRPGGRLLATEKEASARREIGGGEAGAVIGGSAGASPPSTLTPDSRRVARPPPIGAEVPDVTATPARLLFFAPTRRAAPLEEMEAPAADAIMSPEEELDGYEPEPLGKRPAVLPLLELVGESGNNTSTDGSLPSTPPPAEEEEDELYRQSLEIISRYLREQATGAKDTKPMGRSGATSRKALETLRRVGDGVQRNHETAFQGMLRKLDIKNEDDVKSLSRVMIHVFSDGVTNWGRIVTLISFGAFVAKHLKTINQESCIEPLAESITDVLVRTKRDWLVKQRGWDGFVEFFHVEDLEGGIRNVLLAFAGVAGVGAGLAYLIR

SMILES: N#CCC(=O)N/N=C/c1ccc(N2N=C(c3ccccc3)CC2c2ccccc2)cc1 (centres undefined)
- IC50 [1]: 0.198 µM (active)

SMILES: O=[N+]([O-])c1cc(Br)c(O)c(/C=N/Nc2nnnn2-c2cccc3ccccc23)c1
- IC50 (Albumin): > 94.1 µM (inactive)
- AC50 [2]: 15.6 µM (active)
- EC50 [3]: > 150 µM (inconclusive)
- EC50 (Streptococcus): > 150 µM (not active)
- EC50 (Streptokinase A): > 150 µM (not active)
- EC50 [4]: 3.69 µM (active)
- IC50 [5]: > 64 µM (inactive)
- IC50 [6]: 30.2 µM (active)
- IC50 (Aminopeptidase N): 6.79 µM (active)
- EC50 [7]: > 38 µM (not active)

SMILES: O=C(CCN1CCN(c2ccccc2)CC1)N/N=C/c1ccc(O)c(O)c1O
- IC50 (Albumin): > 94.1 µM (inactive)
- EC50 [3]: > 150 µM (inactive)
- AC50 (Caspase-6): 1.11 µM (active)
- EC50 [7]: 3.04 µM (active)
- IC50 [8]: > 50 µM (not active)
- IC50 (Genome polyprotein): 30.1 µM (active)
- IC50 [9]: 6.59 µM (active)

SMILES: Cc1cc(C)c2c(N)c(C(=O)NN)sc2n1
- IC50 (Albumin): > 94.1 µM (inactive)

SMILES: COc1cc2c(cc1N=C(S)Nc1cccc(C)c1)oc1ccccc12
- IC50 [1]: 5.82 µM (active)

SMILES: O=C(COc1ccc(C(=O)c2ccccc2)cc1)Nc1cccnc1
- EC50 (cells): > 29.9 µM (inactive)
- IC50 (Galanin receptor type 3): 0.399 µM (active)

SMILES: Cc1cc(-c2nc3ccccc3o2)c2ccccc2n1
- IC50 [1]: 2.96 µM (active)
- EC50 [10]: > 50 µM (active)
